According to patent US12187721B2, “Protein tyrosine phosphatase inhibitors” (Array BioPharma Inc., priority 2018, dated 2025):
Where a name gives a salt, the structure may show the parent alone.

The molecules below were run against T1, full-length SHP2 (His6-tagged SHP2(2-527)) (Homo sapiens, UniProt Q06124) (assay: SHP2 Enzymatic Assay (fluorescence intensity kinetic assay, DiFMUP hydrolysis)). Conditions: not given.
T1 construct: His6-tagged SHP2(2-527); His6; made in house; host or cells: E. coli
T1 sequence (Q06124 2-527): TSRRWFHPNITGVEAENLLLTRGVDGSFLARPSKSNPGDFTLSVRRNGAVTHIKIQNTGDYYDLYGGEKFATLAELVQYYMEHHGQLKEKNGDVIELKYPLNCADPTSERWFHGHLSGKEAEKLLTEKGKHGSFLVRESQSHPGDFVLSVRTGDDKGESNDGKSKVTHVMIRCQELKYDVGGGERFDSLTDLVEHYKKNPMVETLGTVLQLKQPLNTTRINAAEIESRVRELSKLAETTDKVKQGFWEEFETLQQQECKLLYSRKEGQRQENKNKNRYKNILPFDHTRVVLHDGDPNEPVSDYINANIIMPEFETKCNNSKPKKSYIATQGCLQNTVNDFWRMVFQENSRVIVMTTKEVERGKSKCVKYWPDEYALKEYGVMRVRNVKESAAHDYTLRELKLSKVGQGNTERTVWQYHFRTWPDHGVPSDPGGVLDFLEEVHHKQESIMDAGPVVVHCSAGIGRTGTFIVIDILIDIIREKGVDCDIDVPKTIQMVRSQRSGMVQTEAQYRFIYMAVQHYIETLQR
Type: biochemical
In short: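 1 nM His6-SHP2(2-527), activated by 1 μM bis-phosphopeptide, hydrolysed 50 μM DiFMUP in 25 mM HEPES pH 7.4 with 1 mM DTT, 50 mM KCl and 2% DMSO. DiFMU fluorescence (Ex 355/Em 460 nm) was read kinetically for 15 min at ambient temperature.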

In order of rising IC50:
1. N[C@@H]1c2ccccc2CC12CCN(c1cnc3nc(Oc4ccc(F)cc4)ccc3n1)CC2 [Example 123, (S)-1′-(6-(4-fluorophenoxy)pyrido[2,3-b]pyrazin-2-yl)-1,3-dihydrospiro[indene-2,4′-piperidin]-1-amine]  0.021 µM
2. C[Si]1(CN)CCN(c2cnc3nc(Sc4ccnc(N)c4Cl)ccc3n2)CC1 [Example 109, 4-((2-(4-(Aminomethyl)-4-methyl-1,4-azasilinan-1-yl)pyrido[2,3-b]pyrazin-6-yl)thio)-3-chloropyridin-2-amine]  0.027 µM
3. Cc1cccc2c1CC1(CCN(c3cnc4nc(Sc5ccnc(N)c5Cl)ccc4n3)CC1)[C@@H]2N [Example 126, (S)-1′-(6-((2-amino-3-chloropyridin-4-yl)thio)pyrido[2,3-b]pyrazin-2-yl)-4-methyl-1,3-dihydrospiro[indene-2,4′-piperidin]-1-amine]  0.03 µM
4. Nc1nccc(Sc2ccc3nc(N4CCC5(CC4)Oc4ccccc4[C@H]5N)cnc3n2)c1Cl [Example 132]  0.031 µM
5. N#Cc1ccc2c(c1)[C@H](N)C1(CCN(c3cnc4nc(Sc5ccnc(N)c5Cl)ccc4n3)CC1)C2 [Example 111, (R)-1-amino-1′-(6-((2-amino-3-chloropyridin-4-yl)thio)pyrido[2,3-b]pyrazin-2-yl)-1,3-dihydrospiro[indene-2,4′-piperidine]-6-carbonitrile]  0.034 µM
6. CC(C)(O)CC1(N)CCN(c2cnc3nc(Sc4ccnc(N)c4Cl)ccc3n2)CC1 [Example 129, 1-(4-amino-1-(6-((2-amino-3-chloropyridin-4-yl)thio)pyrido[2,3-b]pyrazin-2-yl)piperidin-4-yl)-2-methylpropan-2-ol]  0.034 µM
7. Nc1ncc(Sc2ccc3nc(N4CCC5(CC4)Cc4ccccc4[C@H]5N)cnc3n2)c(Cl)c1Cl [Example 119, (S)-1′-(6-((6-amino-4,5-dichloropyridin-3-yl)thio)pyrido[2,3-b]pyrazin-2-yl)-1,3-dihydrospiro[indene-2,4′-piperidin]-1-amine]  0.039 µM
8. NCC1CC2CCC(C1)N2c1cnc2nc(Sc3ccnc(N)c3Cl)ccc2n1 (centres unmarked) [Example 102, 4-((2-(3-(aminomethyl)-8-azabicyclo[3.2.1]octan-8-yl)pyrido[2,3-b]pyrazin-6-yl)thio)-3-chloropyridin-2-amine]  0.044 µM
9. N[C@@H]1c2ccccc2CC12CCN(c1cnc3nc(Sc4ccnc(NCCO)c4Cl)ccc3n1)CC2 [Example 110, (S)-2-((4-((2-(1-amino-1,3-dihydrospiro[indene-2,4′-piperidin]-1′-yl)pyrido[2,3-b]pyrazin-6-yl)thio)-3-chloropyridin-2-yl)amino)ethan-1-ol]  0.044 µM
10. Nc1nccc(Sc2ccc3nc(N4CC5(Cc6ccccc6[C@H]5N)C4)cnc3n2)c1Cl [Example 124, (R)-1-(6-((2-amino-3-chloropyridin-4-yl)thio)pyrido[2,3-b]pyrazin-2-yl)-1′,3′-dihydrospiro[azetidine-3,2′-inden]-1′-amine]  0.052 µM
11. Cc1ccc2c(n1)CC1(CCN(c3cnc4nc(Sc5ccnc(N)c5Cl)ccc4n3)CC1)[C@H]2N [Example 113, (R)-1′-(6-((2-amino-3-chloropyridin-4-yl)thio)pyrido[2,3-b]pyrazin-2-yl)-2-methyl-5,7-dihydrospiro[cyclopenta[b]pyridine-6,4′-piperidin]-5-amine]  0.053 µM
12. C[C@@H]1C[C@@H](N)CCN1c1cnc2nc(Sc3ccnc(N)c3Cl)ccc2n1 [Example 122, 4-((2-((2R,4S)-4-amino-2-methylpiperidin-1-yl)pyrido[2,3-b]pyrazin-6-yl)thio)-3-chloropyridin-2-amine dihydrochloride]  0.064 µM
13. C[C@@H]1OCC2(CCN(c3cnc4nc(Sc5cc(N)nc6[nH]ccc56)ccc4n3)CC2)[C@@H]1N [Example 140, (3S,4S)-8-(6-((6-amino-1H-pyrrolo[2,3-b]pyridin-4-yl)thio)pyrido[2,3-b]pyrazin-2-yl)-3-methyl-2-oxa-8-azaspiro[4.5]decan-4-amine]  0.075 µM
14. Nc1nccc(Sc2ccc3nc(N4CCC5NCC5C4)cnc3n2)c1Cl (centres unmarked) [Example 103, 4-((2-(3,7-diazabicyclo[4.2.0]octan-3-yl)pyrido[2,3-b]pyrazin-6-yl)thio)-3-chloropyridin-2-amine]  0.079 µM
15. C[C@@H]1OCC2(CCN(c3cnc4nc(Sc5ccc(N)nc5Cl)ccc4n3)CC2)[C@@H]1N [Example 105, (3S,4S)-8-(6-((6-amino-2-chloropyridin-3-yl)thio)pyrido[2,3-b]pyrazin-2-yl)-3-methyl-2-oxa-8-azaspiro[4.5]decan-4-amine]  0.082 µM
16. N[C@@H]1c2ccccc2CC12CCN(c1cnc3nc(Sc4cnc5ccc(Cl)cn45)ccc3n1)CC2 [Example 127, (S)-1′-(6-((6-chloroimidazo[1,2-a]pyridin-3-yl)thio)pyrido[2,3-b]pyrazin-2-yl)-1,3-dihydrospiro[indene-2,4′-piperidin]-1-amine]  0.082 µM
17. Nc1cc(Sc2ccc3nc(N4CCC5(CC4)Cc4ncccc4[C@H]5N)cnc3n2)c(Cl)cn1 [Example 133, (S)-1′-(6-((2-amino-5-chloropyridin-4-yl)thio)pyrido[2,3-b]pyrazin-2-yl)-5,7-dihydrospiro[cyclopenta[b]pyridine-6,4′-piperidin]-5-amine]  0.092 µM
18. Cc1c[nH]c2nccc(Sc3ccc4nc(N5CCC6(CC5)CO[C@@H](C)[C@H]6N)cnc4n3)c12 [Example 139, (3S,4S)-3-methyl-8-(6-((3-methyl-1H-pyrrolo[2,3-b]pyridin-4-yl)thio)pyrido[2,3-b]pyrazin-2-yl)-2-oxa-8-azaspiro[4.5]decan-4-amine]  0.093 µM
19. CCC1(N)CCN(c2cnc3nc(Sc4ccnc(N)c4Cl)ccc3n2)CC1 [Example 130, 4-((2-(4-amino-4-ethylpiperidin-1-yl)pyrido[2,3-b]pyrazin-6-yl)thio)-3-chloropyridin-2-amine]  0.096 µM
20. C[C@@H]1C[C@H](N)CCN1c1cnc2nc(Sc3ccnc(N)c3Cl)ccc2n1 [Example 121, 4-((2-((2R,4R)-4-amino-2-methylpiperidin-1-yl)pyrido[2,3-h]pyrazin-6-yl)thio)-3-chloropyridin-2-amine]  0.099 µM
21. Nc1nccc(Sc2ccc3nc(N4CCC(N)(CCO)CC4)cnc3n2)c1Cl [Example 128, 2-(4-amino-1-(6-((2-amino-3-chloropyridin-4-yl)thio)pyrido[2,3-b]pyrazin-2-yl)piperidin-4-yl)ethan-1-ol]  0.1 µM
22. C[C@@H]1OCC2(CCN(c3cnc4nc(Sc5ccnc(N6CC[C@@H](CO)C6)c5Cl)ccc4n3)CC2)[C@@H]1N [Example 106, ((R)-1-(4-((2-((3S,4S)-4-amino-3-methyl-2-oxa-8-azaspiro[4.5]decan-8-yl)pyrido[2,3-b]pyrazin-6-yl)thio)-3-chloropyridin-2-yl)pyrrolidin-3-yl)methanol]  0.101 µM
23. C[C@@H]1OCC2(CCN(c3cnc4nc(Sc5ccnc(N6CC[C@@H](O)C6)c5Cl)ccc4n3)CC2)[C@@H]1N [Example 107, (R)-1-(4-((2-((3S,4S)-4-amino-3-methyl-2-oxa-8-azaspiro[4.5]decan-8-yl)pyrido[2,3-b]pyrazin-6-yl)thio)-3-chloropyridin-2-yl)pyrrolidin-3-ol]  0.12 µM
24. C[C@@H]1OCC2(CCN(c3cnc4nc(Sc5ccnc(N)c5C(F)(F)F)ccc4n3)CC2)[C@@H]1N [Example 136, (3S,4S)-8-(6-((2-amino-3-(trifluoromethyl)pyridin-4-yl)thio)pyrido[2,3-b]pyrazin-2-yl)-3-methyl-2-oxa-8-azaspiro[4.5]decan-4-amine]  0.16 µM
25. C[C@@H]1OCC2(CCN(c3cnc4nc(Sc5ccnc6[nH]cnc56)ccc4n3)CC2)[C@@H]1N [Example 131, (3S,4S)-8-(6-((3H-imidazo[4,5-b]pyridin-7-yl)thio)pyrido[2,3-b]pyrazin-2-yl)-3-methyl-2-oxa-8-azaspiro[4.5]decan-4-amine]  0.419 µM
26. CC(C)(C)OC(=O)N[C@H]1[C@@H]2C[C@H]1CN(c1cnc3nc(Sc4ccnc(N)c4Cl)ccc3n1)C2 [Example 138]  0.574 µM
27. Cc1nc2nc(Sc3cccc(Cl)c3Cl)ccc2nc1N1CCC(C)(N)CC1 [Example 120, 1-(6-((2,3-dichlorophenyl)thio)-3-methylpyrido[2,3-b]pyrazin-2-yl)-4-methylpiperidin-4-amine]  0.633 µM
28. Nc1nccc(Sc2ccc3nc(N4CCC(N)(C(F)(F)F)CC4)cnc3n2)c1Cl [Example 104, 4-((2-(4-amino-4-(trifluoromethyl)piperidin-1-yl)pyrido[2,3-b]pyrazin-6-yl)thio)-3-chloropyridin-2-amine]  3.35 µM
29. C[C@@H]1OCC2(CCN(c3cnc4nc(N5CCCc6ncccc65)ccc4n3)CC2)[C@@H]1N [Example 135, (3S,4S)-8-(6-(3,4-dihydro-1,5-naphthyridin-1(2H)-yl)pyrido[2,3-b]pyrazin-2-yl)-3-methyl-2-oxa-8-azaspiro[4.5]decan-4-amine]  4.03 µM

Same assay, conditions: full-length SHP2 with 1 μM activating peptide, 50 μM DiFMUP; single assay or mean of multiple assays; read-out: Biological Example 1 IC50

In order of falling IC50:
1. Nc1nccc(Sc2ccc3nc(N4C[C@H]5C[C@@H](C4)[C@H]5N)cnc3n2)c1Cl [Example 137]  0.064 µM
2. COc1cnc2c(c1)[C@@H](N)C1(CCN(c3cnc4nc(Sc5ccnc(N)c5Cl)ccc4n3)CC1)C2 [Example 115, (S)-1′-(6-((2-amino-3-chloropyridin-4-yl)thio)pyrido[2,3-b]pyrazin-2-yl)-3-methoxy-5,7-dihydrospiro[cyclopenta[b]pyridine-6,4′-piperidin]-5-amine]  0.06 µM
3. Cc1ccc2c(n1)CC1(CCN(c3cnc4nc(Sc5ccnc(N)c5Cl)ccc4n3)CC1)[C@@H]2N [Example 114, (S)-1′-(6-((2-amino-3-chloropyridin-4-yl)thio)pyrido[2,3-b]pyrazin-2-yl)-2-methyl-5,7-dihydrospiro[cyclopenta[b]pyridine-6,4′-piperidin]-5-amine]  0.04 µM
